Literature values in patent EP2229962A1, “Medical-surgical devices with antibacterial coating for human or animal implant and a method for their production” (Martelli, Laura, priority 2009, dated 2010).
Where two headings read alike, the source gives them in different places.

Experiments:
[1] = test system: surrounding tissue
[2] = test system: bacteria

**Q.** With `[Ag+]` [Ag^+ ions, Ag^+] as the compound, how does the “concentration above which there are cytotoxic effects to the surrounding tissue” value [1] read?
**A.** > 35 ppb

**Q.** What about the “concentration of Ag^+ ions needed to perform an antibacterial action” value ([2]; 1 ppb equivalent to 1 µg/l) of the same compound?
**A.** at least 1 ppb

**Q.** What about the “concentration of Ag^+ ions needed to perform an antibacterial action” value ([2]; in the case of certain bacteria) of the same compound?
**A.** ≥ 0.1 ppb
